From US20100284912A1, “HOMOGENIZATION OF A RADIOPHARMACEUTICAL USING SONIFICATION AND/OR ROTOR-STATOR TECHNOLOGY TO PRODUCE A HOMOGENOUS SUSPENSION, EMULSION, MIXTURE OR SOLID SUSPENSION OF IMMISCIBLE INGREDIENTS” (BRACCO DIAGNOSTICS INC., priority 2007, published 2010)

Experiment: Thermo Gravimetric Analyzer (TGA) % volatiles (water)
Assay type: physicochemical
Conditions: 10° C./min to 110° C., isothermal hold 60 min
Experimental: 10 mg was collected for each sample. A heating ramp of 10° C./min from room temperature to 110° C. with an isothermal hold at 110° C. for 60 min was used in the analysis. Table 4 below depicts the % volatiles (water) which were found versus the theoretical values.

O=P([O-])([O-])O.[K+].[K+] [Potassium Phosphate Dibasic]
% Volatiles Found: 2.7%

O=S([O-])([O-])=S.[Na+].[Na+] [Sodium Thiosulfate]
% Volatiles Found: 33%
